Measured values taken from ChEMBL document CHEMBL4808217, “Design, Synthesis, and Characterization of 4-Aminoquinazolines as Potent Inhibitors of the G Protein-Coupled Receptor Kinase 6 (GRK6) for the Treatment of Multiple Myeloma” (J Med Chem, 2021).

Biological target: G protein-coupled receptor kinase 6 (Homo sapiens, UniProt P43250)
Test: Inhibition of recombinant full-length human GRK6 using casein as substrate at 1 uM measured after 80 mins in presence of [gamma33P]ATP by radiometric scintillation counting method relative to control

Chain of G protein-coupled receptor kinase 6 (P43250 whole entry, looked up): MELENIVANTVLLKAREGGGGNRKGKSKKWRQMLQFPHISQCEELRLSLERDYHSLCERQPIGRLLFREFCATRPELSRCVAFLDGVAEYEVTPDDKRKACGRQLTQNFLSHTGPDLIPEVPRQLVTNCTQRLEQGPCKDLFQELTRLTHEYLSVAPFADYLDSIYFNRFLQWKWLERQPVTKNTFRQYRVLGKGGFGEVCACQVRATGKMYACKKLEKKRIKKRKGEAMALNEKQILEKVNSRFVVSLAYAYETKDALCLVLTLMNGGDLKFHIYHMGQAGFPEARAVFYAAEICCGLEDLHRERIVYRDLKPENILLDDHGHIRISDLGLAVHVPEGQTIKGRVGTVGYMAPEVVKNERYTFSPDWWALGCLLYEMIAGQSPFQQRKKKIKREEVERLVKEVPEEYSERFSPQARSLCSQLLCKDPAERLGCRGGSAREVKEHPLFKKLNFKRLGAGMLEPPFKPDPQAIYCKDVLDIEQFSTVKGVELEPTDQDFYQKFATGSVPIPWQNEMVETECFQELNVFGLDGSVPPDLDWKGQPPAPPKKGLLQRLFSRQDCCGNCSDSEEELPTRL

Row | inhibition [%] | SMILES
1 | 79 | Cc1cc(Nc2nc(N[C@@H](C)c3ccc(F)cc3)c(C#N)cc2F)n[nH]1
2 | 95 | N#CCc1ccc(Nc2nc(Nc3cc(C4CCC4)[nH]n3)c3ccccc3n2)cc1
